Publication PMC6017738, “A Comparative Pharmacokinetic Study by UHPLC-MS/MS of Main Active Compounds after Oral Administration of Zushima-Gancao Extract in Normal and Adjuvant-Induced Arthritis Rats” (Molecules : A Journal of Synthetic Chemistry and Natural …, 2018)

How the values were obtained:
[1] = Pharmacokinetics in normal rats after oral administration of Zushima-Gancao extract (UHPLC-MS/MS of plasma); format: in vivo; conditions: male, Sprague-Dawley, rat, oral Zushima-Gancao extract 10 mL/kg single dose, n = 6, mean ± SD
Procedure: (§1) The plasma concentration–time curves (C-T curves) of nine analytes are presented in Figure 2, and the corresponding pharmacokinetic parameters, including Cmax, Tmax, AUC (0–t), AUC (0–∞) (AUC: area under concentration-time curve), and t1/2, were obtained using DAS 3.0 pharmacokinetic software (Chinese Pharmacological Association, China). Statistical differences between groups were analyzed using Student’s t-tests, and p-values less than 0.05 were considered statistically significant.
(§2) The chromatography experiment was carried out using a UHPLC system (Thermo Fisher, San Jose, CA, USA), equipped with a Hypersil GOLD C18 column (100 mm × 2.1 mm, 3 μm, Thermo Fisher, San Jose, CA, USA) maintained at 35 °C. The mobile phase consisted of 0.05% formic acid in water (Solvent A) and acetonitrile (Solvent B), and the flow rate was 0.3 mL/min. In order to completely separate all the analytes, the 10 min gradient elution program was used as follows: 0–1 min, 10% B; 1–5 min, 10–90% B; 5–6 min, 90–100% B; 6–8 min, 100% B; 8–9 min, 100–10% B; 9–10 min, 10% B, and the sample injection volume was 3 μL.
(§3) Mass spectrometry detection was operated on TSQ Vantage triple-stage quadrupole mass spectrometer (Thermo Fisher, San Jose, CA, USA) equipped with an electrospray ionization (ESI) source. Quantification of the analytes was performed using selective reaction monitor (SRM) in the negative ionization mode. Spray voltage, sheath gas pressure, auxiliary gas pressure, vaporizer temperature, and capillary temperature were set as 3.0 kV, 45 arb, 25 arb, 450 °C, and 350 °C, respectively.
(§4) Male Sprague–Dawley (SD) rats weighing 180–220 g (SCXK-2012-0002) were supplied by Silaike Lab Animals Ltd. (Shanghai, China). They were all kept in a stable condition (temperature, 22 ± 2 °C; relative humidity, 45–60%) with 12 h light/dark cycles for five days before animal experiments.
(§5) Rats were randomly divided into normal and AA groups with six rats in each group. The arthritic model rats were prepared as our previous research [19]. AA rats were intracutaneously injected with 0.1 mL of FAC in the left hind footpad and normal rats were injected with sterile saline. The FAC solution was prepared as follows: bacillus calmette-guerin (BCG) was bathed in water at 80 °C for 30 min, and then dissolved in a liquid paraffin–lanolin mixture (3:2, v/v). Immediately prior to use, the FAC solution were sterilized for 30 min at 120 °C.
(§6) After model construction, the rats were fed for 20 days. All rats were fasted for 12 h before drug administration, with free access to water. Each rat was administered with Zushima-Gancao extract at a single dose of 10 mL/kg. Blood samples (approximately 0.3 mL) were collected into heparinized micro-centrifuge tubes from the postorbital venous plexus veins of rats at specific time points of 0, 0.08, 0.17, 0.33, 0.5, 1, 2, 3, 5, 8, 12, 24, and 36 h. All blood samples were centrifuged immediately at 5000 rpm for 6 min, and the plasma were obtained and stored at −80 °C until analysis.
(§7) A liquid–liquid extraction (LLE) method was applied to extract the compounds from thawed rat plasma samples, aliquots of 100 μL plasma sample were transferred into a 1.5 mL Eppendorf tube, and 10 μL of methanol, 10 μL of hydrochloric acid (2 mol/L), and 10 μL of IS (130 ng/mL) were added separately. The mixture was vortexed for 30 s, and 500 μL of ethyl acetate was added and mixed by vortexing for 10 min. The supernatant (about 450 μL) was transferred into another tube after centrifugation at 16,000 rpm for 10 min and then evaporated to dryness at 45 °C, 15 kPa in a Thermo SPD1010-230 SpeedVac Concentrator (Thermo Fisher, San Jose, CA, USA). The residue was dissolved in 100 μL of initial mobile phase by vortexing for 5 min, and a further centrifugation at 17,000 rpm for 10 min was applied after the residue was re-dissolved. The supernatant was injected into the UHPLC-MS/MS system for analysis.

[2] = Stability test of analytes in rat plasma (QC samples); format: physicochemical; conditions: for 24 h Stability RE: autosampler at 4 °C for 24 h; for Short-Term Stability RE: room temperature for 4 h; for Freeze-Thaw Stability RE: three freeze-thaw cycles; for Long-Term Stability RE: −80 °C for a week
Procedure: Stability. To evaluate the stability of each component during analysis, QC samples at low, middle, and high concentrations (three samples for each concentration) were tested under different conditions, including placing QC samples in the autosampler at 4 °C for 24 h, at room temperature for 4 h, at −80 °C for a week, and three freeze-thaw cycles.

[3] = Pharmacokinetics in adjuvant-induced arthritis (AA) rats after oral administration of Zushima-Gancao extract (UHPLC-MS/MS of plasma); conditions: for change of Cmax in AA rats versus normal rats: p < 0.05
Procedure: as §1, §2, §3, §4, §5, §6, §7

[4] = AA rats versus normal rats, oral Zushima-Gancao extract
[5] = male, Sprague-Dawley, rat, plasma, po, 10 mL/kg
[6] = male, Sprague-Dawley, rat, in vivo, po, 10 mL/kg

AUC(0-inf) [1] [ng·h/mL] | AUC(0-t) [1] [ng·h/mL] | Cmax [1] [ng/mL] | Tmax [1] [min] | half-life [1] [min] | 24 h Stability RE ([2]; high concentration) [%] | Short-Term Stability RE ([2]; high concentration) [%] | Freeze-Thaw Stability RE ([2]; high concentration) [%] | Long-Term Stability RE ([2]; high concentration) [%] | 24 h Stability RE ([2]; low concentration) [%] | Short-Term Stability RE ([2]; low concentration) [%] | Freeze-Thaw Stability RE ([2]; low concentration) [%] | Long-Term Stability RE ([2]; low concentration) [%] | 24 h Stability RE ([2]; middle concentration) [%] | Short-Term Stability RE ([2]; middle concentration) [%] | Freeze-Thaw Stability RE ([2]; middle concentration) [%] | Long-Term Stability RE ([2]; middle concentration) [%] | AUC(0-inf) [3, 5] [ng·h/mL] | AUC(0-t) [3, 5] [ng·h/mL] | Cmax [3, 5] [ng/mL] | Structure (SMILES) | other results
148 ± 24.9 | 142 ± 24.4 | 193 ± 29.3 | 13.2 ± 4.8 | 172 ± 116 | 1.39 | 3.09 | 2.64 | −0.05 | −1.43 | −13.86 | −13.48 | −10.07 | −0.85 | −5.72 | −1.27 | −1.8 | 131 ± 29.1 | 127 ± 26.8 | 179 ± 98 | O=c1ccc2ccc(O)cc2o1 [HDC, 7-hydroxycoumarin] | Tmax [3, 5]: 13.2 ± 4.8 min; half-life [3, 5]: 151 ± 109 min
12.4 ± 6.97 | 8.89 ± 3.12 | 2.77 ± 0.83 | 8.4 ± 3 | 64.8 ± 40.2 | 10.13 | 12.09 | 7.59 | 13.23 | 8.75 | −3.23 | 2.53 | −11.29 | 10.08 | 11.76 | 12.3 | 12.68 | 8.48 ± 3.04 | 8.25 ± 2.9 | 1.92 ± 0.55 | O=C(/C=C/c1ccc(O)cc1)c1ccc(O)cc1O [ILG, isoliquiritigenin] | change of Tmax in AA rats versus normal rats ([3]; AA versus normal rats): obvious increase; Tmax [3, 5]: 222 ± 126 min; half-life [3, 5]: 83.4 ± 39 min
170 ± 62.5 | 169 ± 62.4 | 23.9 ± 3.72 | 232 ± 119 | 99.6 ± 26.4 | 8.56 | 1.5 | 6.75 | 3.89 | 6.72 | 9.76 | 7.22 | 2.87 | 8.15 | 11.16 | 7.96 | 0.58 | 194 ± 84.4 | 193 ± 83.2 | 29.7 ± 10.7 | O=C1C[C@@H](c2ccc(O)cc2)Oc2cc(O)ccc21 [LG, liquiritigenin] | Tmax [3, 5]: 282 ± 151 min; half-life [3, 5]: 138 ± 57 min

More lines, now with the values behind:

Structure (SMILES) | AUC(0-inf) [1] [ng·h/mL] | AUC(0-t) [1] [ng·h/mL] | Cmax [1] [ng/mL] | Tmax [1] [min] | half-life [1] [min] | 24 h Stability RE ([2]; high concentration) [%] | Short-Term Stability RE ([2]; high concentration) [%] | Freeze-Thaw Stability RE ([2]; high concentration) [%] | Long-Term Stability RE ([2]; high concentration) [%] | 24 h Stability RE ([2]; low concentration) [%] | Short-Term Stability RE ([2]; low concentration) [%] | Freeze-Thaw Stability RE ([2]; low concentration) [%] | Long-Term Stability RE ([2]; low concentration) [%] | 24 h Stability RE ([2]; middle concentration) [%] | Short-Term Stability RE ([2]; middle concentration) [%] | Freeze-Thaw Stability RE ([2]; middle concentration) [%] | Long-Term Stability RE ([2]; middle concentration) [%] | AUC(0-inf) [3, 5] [ng·h/mL] | AUC(0-t) [3, 5] [ng·h/mL] | Cmax [3, 5] [ng/mL] | other results
O=c1ccc2ccc(O)c(O)c2o1 [DPH, daphnetin] | 256 ± 54.8 | 246 ± 53.9 | 214 ± 32.5 | 14.4 ± 6.6 | 204 ± 57.6 | −11.8 | −12.42 | −14.04 | −12.23 | −13.85 | −7.83 | −6.29 | −12.07 | −13.73 | −12.68 | −8.25 | −15 | 167 ± 49 | 165 ± 49.4 | 201 ± 108 | decrease of AUC (0–∞) compared with the normal group [3, 4]: 34.56%; change of t1/2 in AA rats versus normal rats ([3]; AA versus normal rats): remarkable decrease; Tmax [3, 5]: 12 ± 4.2 min; half-life [3, 5]: 124 ± 15.6 min
COc1cc2cc(Oc3ccc4ccc(=O)oc4c3)c(=O)oc2cc1O [DR, daphnoretin] | 163 ± 78.7 | 131 ± 58.1 | 14.4 ± 3.31 | 23.4 ± 18.6 | 872 ± 175 | −6.11 | −5.38 | −9.71 | −13.85 | −11.79 | −13.63 | 0.05 | −12.79 | −11.33 | −13.99 | −14.22 | −14.41 | 154 ± 79.8 | 86.2 ± 33.8 | 7.06 ± 3.82 | change of Cmax in AA rats versus normal rats ([3]; AA versus normal rats): decreased remarkably; Tmax [3, 5]: 25.2 ± 18.6 min; half-life [3, 5]: 1700 ± 563 min
CC1(C)[C@@H](O)CC[C@]2(C)[C@H]3C(=O)C=C4[C@@H]5C[C@@](C)(C(=O)O)CC[C@]5(C)CC[C@@]4(C)[C@]3(C)CC[C@@H]12 [GA, glycyrrhetinic acid] | 1960 ± 1260 | 1940 ± 1240 | 167 ± 93 | 520 ± 97.8 | 233 ± 77.4 | 14.35 | 13.05 |  | 9.57 | 13.49 | 2.08 |  | 0.04 | 14.1 | −3.38 |  | 5.44 | 4330 ± 1860 | 4260 ± 1860 | 418 ± 296 | increase of AUC (0–∞) in model rats compared to normal rats [3, 4]: 2.2 fold; increase of AUC(0–t) in model rats compared to normal rats [3, 4]: 2.2 fold; Tmax [3, 5]: 560 ± 124 min; half-life [3, 5]: 296 ± 146 min
CC1(C)[C@@H](O[C@H]2O[C@H](C(=O)O)[C@@H](O)[C@H](O)[C@H]2O[C@@H]2O[C@H](C(=O)O)[C@@H](O)[C@H](O)[C@H]2O)CC[C@]2(C)[C@H]3C(=O)C=C4[C@@H]5C[C@@](C)(C(=O)O)CC[C@]5(C)CC[C@@]4(C)[C@]3(C)CC[C@@H]12 [GL, glycyrrhizin] | 267 ± 49.7 | 248 ± 47.8 | 29 ± 10.5 | 34.8 ± 21 | 523 ± 289 | 13.22 | 13.85 | 14.36 | 9.2 | 11.79 | 10.26 | 10.89 | 11.48 | 11.8 | 10.68 | 14.3 | 9.96 | 187 ± 64.6 | 184 ± 61.7 | 24.9 ± 7.81 | decrease of AUC (0–∞) compared with the normal group [3, 4]: 29.89%; change of Tmax in AA rats versus normal rats ([3]; AA versus normal rats): obvious increase; Tmax [3, 5]: 290 ± 158 min; half-life [3, 5]: 293 ± 182 min
O=C(/C=C/c1ccc(O[C@@H]2O[C@H](CO)[C@@H](O)[C@H](O)[C@H]2O)cc1)c1ccc(O)cc1O [ILQ, isoliquiritin] | 6.74 ± 0.6 | 6.72 ± 0.6 | 8.92 ± 1.68 | 10.2 ± 5.4 | 31.2 ± 12 | 6.64 | 3.29 | 4.51 | 2.66 | 4.99 | 9.08 | −2.51 | 7.49 | 5.33 | 12.35 | −6.3 | 5.37 |  |  |  | decrease of AUC (0–∞) compared with the normal group [3, 4]: 39.02%; Tmax ([3]; AA rats, oral Zushima-Gancao extract 10 mL/kg single dose, plasma, n = 6, mean ± SD): 21.6 ± 7.8 min; change of Tmax in AA rats versus normal rats ([3]; AA versus normal rats): obvious increase; change of Cmax in AA rats versus normal rats ([3]; AA versus normal rats): decreased remarkably; AUC(0-inf) [3, 6]: 4.11 ± 1.12 ng·h/mL; AUC(0-t) [3, 6]: 4.04 ± 1.2 ng·h/mL; Cmax [3, 6]: 4.63 ± 3.64 ng/mL; half-life [3, 6]: 56.4 ± 49.8 min
O=C1C[C@@H](c2ccc(O[C@@H]3O[C@H](CO)[C@@H](O)[C@H](O)[C@H]3O)cc2)Oc2cc(O)ccc21 [LQ, liquiritin] | 45.5 ± 3.9 | 45.5 ± 3.89 | 58.8 ± 12.5 |  | 28.2 ± 9 | 4.89 | 5.23 | 7.92 | 7.57 | 2.03 | −9.95 | 13.76 | 8.14 | 3.31 | 0.14 | −5.95 | −0.13 | 34.4 ± 8.89 | 33.1 ± 6.8 | 30.1 ± 13.8 | decrease of AUC (0–∞) compared with the normal group [3, 4]: 24.57%; change of Cmax in AA rats versus normal rats ([3]; AA versus normal rats): decreased remarkably; Tmax [3, 5]: 12.6 ± 6 min; half-life [3, 5]: 45 ± 39 min
